For experiment [1], the system named is CCRF-CEM, a human lymphoblastic leukemia line of T-cell origin (ATCC CCL 119). The experiment can be described thus: cells. It counts as cell-based. Particulars: 120 h, read-out: IC50 (CRFCEM).
For another experiment, the target named is human TS ("HTS") (Homo sapiens, UniProt P04818). Nature of the experiment: biochemical. How it is done: (§1) Thymidylate synthase inhibition constants Ki were determined by the following method. All assays were run at 25° C. and initiated by the addition of three different types of thymidylate synthase ("TS"): (1) Escherichia Coli TS ("ETS"); (2) Candida TS ("CTS"), a fungus; and (3) human TS ("HTS").
human TS ("HTS"), sequence (P04818 whole entry): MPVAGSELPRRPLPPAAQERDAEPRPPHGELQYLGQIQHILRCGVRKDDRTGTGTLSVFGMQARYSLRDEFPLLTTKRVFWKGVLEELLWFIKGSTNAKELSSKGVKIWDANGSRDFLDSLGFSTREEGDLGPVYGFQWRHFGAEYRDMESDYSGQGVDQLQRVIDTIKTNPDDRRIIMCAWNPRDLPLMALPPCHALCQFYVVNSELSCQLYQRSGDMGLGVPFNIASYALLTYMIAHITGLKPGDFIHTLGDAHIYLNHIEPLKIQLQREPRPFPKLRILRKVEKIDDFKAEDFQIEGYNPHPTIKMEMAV
All reaction mixtures contained 50 mM Tris at pH 7.8 (the final pH of the reaction was; 7.6), 10 mM DTT (dithiothreitol), 1 mM EDTA (ethylenediaminetetraacetic acid), 25 mM MgCl2, 15 mM H2 CO (formaldehyde) and 25 microM dUMP. When human TS was assayed, 100 micrograms/ml of BSA (bovine serum albumin) was present in the reactions. […] A standard curve in the absence of inhibitor was run with each experiment. […] Charcoal was used to remove unreacted dUMP from the tritium release reaction mixtures, and the resultant water was counted to determine the extent of reaction.

Experiment [2] deals with L1210 murine leukemia (ATCC CCL 219). Nature of the experiment: cells. It counts as cell-based. The settings on record: Mus musculus, L1210, 72 h, read-out: IC50 L1210.
A further experiment has as its target Candida TS ("CTS") (Candida albicans, UniProt P12461). Nature of the experiment: Thymidylate synthase inhibition constant Ki, Candida TS. The class given is biochemical. How it is done: as §1
(§2) All reaction mixtures contained 50 mM Tris at pH 7.8 (the final pH of the reaction was; 7.6), 10 mM DTT (dithiothreitol), 1 mM EDTA (ethylenediaminetetraacetic acid), 25 mM MgCl2, 15 mM H2 CO (formaldehyde) and 25 microM dUMP. When human TS was assayed, 100 micrograms/ml of BSA (bovine serum albumin) was present in the reactions. The range of THF (Tetrahydrofolate) was 5 to 150 microM (eight concentrations: 5, 6.6, 10, 13, 16, 25, 50 and 150 microM). A standard curve in the absence of inhibitor was run with each experiment. […] Charcoal was used to remove unreacted dUMP from the tritium release reaction mixtures, and the resultant water was counted to determine the extent of reaction.

Experiment [3] has as its system thymidine kinase deficient human adenocarcinoma line (GC3 /M TK^-). The experiment can be described thus: cells. The class given is cell-based. The settings on record: GC3/MTK-, 120 h, read-out: IC50 GC3-M.
Experiment [4] addresses Escherichia Coli TS ("ETS") (Escherichia coli, UniProt P0A884). The experiment can be described thus: Thymidylate synthase inhibition constant Ki, Escherichia Coli TS. The class given is biochemical. How it is done: as §1, §2

Where two headings read alike, the source gives them in different places.

Candida TS ("CTS"), sequence (P12461 whole entry): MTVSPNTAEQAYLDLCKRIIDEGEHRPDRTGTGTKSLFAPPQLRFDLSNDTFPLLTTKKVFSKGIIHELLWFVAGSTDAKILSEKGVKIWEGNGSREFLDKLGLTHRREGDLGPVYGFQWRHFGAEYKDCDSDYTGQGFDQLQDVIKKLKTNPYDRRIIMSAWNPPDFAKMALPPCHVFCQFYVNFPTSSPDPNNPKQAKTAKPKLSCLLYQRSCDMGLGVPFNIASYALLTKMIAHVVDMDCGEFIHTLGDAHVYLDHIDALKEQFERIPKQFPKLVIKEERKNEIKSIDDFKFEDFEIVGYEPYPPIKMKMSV
Escherichia Coli TS ("ETS"), sequence (P0A884 whole entry): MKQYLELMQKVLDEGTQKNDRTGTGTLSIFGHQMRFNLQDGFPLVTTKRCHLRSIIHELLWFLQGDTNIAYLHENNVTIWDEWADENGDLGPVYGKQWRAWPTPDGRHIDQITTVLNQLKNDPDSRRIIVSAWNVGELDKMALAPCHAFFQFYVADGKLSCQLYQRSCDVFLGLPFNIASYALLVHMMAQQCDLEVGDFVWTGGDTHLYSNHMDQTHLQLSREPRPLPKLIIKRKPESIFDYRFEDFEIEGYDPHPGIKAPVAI

Turning to `CCN(Cc1ccc(S(=O)(=O)N2CCNCC2)cc1)c1ccc2c3c(cccc13)C(=S)N2` [Compound 6, N-^6 -Ethyl-N^6 [(4-N,N-piperazinyl)sulfamoyl]benzyl-6-aminobenz[cd]indol-2(1H)-thione], the 50% inhibitory concentration (IC50) (in general, the concentration at which inhibition is half-maximal) in experiment [1] is 3.5 µM; in experiment [2], 2.1 µM; in experiment [3], over 5 µM. The Ki (commonly the equilibrium dissociation constant of an inhibitor or competing ligand from its target) on human TS ("HTS") came to 3.4 ± 0.4 µM; on Candida TS ("CTS"), 23 ± 15 µM; in experiment [4], 50 ± 9 µM.

On to `CCN(Cc1ccc(S(=O)(=O)c2ccccc2)cc1)c1ccc2c3c(cccc13)C(=O)N2` [Compound 8, N-[4-(phenylsulfonyl)benzyl]-N-ethyl-6-aminobenz[cd]indol-2(1H)-one], for which the IC50 in experiment [1] is over 3.33 µM; in experiment [2] it was 3.05 µM; in experiment [3], over 3.33 µM. The Ki at human TS ("HTS") was 1.2 ± 0.4 µM; at Candida TS ("CTS"), over 1 µM; in experiment [4], over 1 µM.

As to `O=C1Nc2ccc(N(CCO)Cc3ccc(S(=O)(=O)N4CCNCC4)cc3)c3cccc1c23` [Compound 16, N-[4-(N,N-Piperazinylsulfamoyl)benzyl]-N-hydroxyethyl-6-aminobenz[cd]indol-2(1H)-one], the IC50 is 31 µM in experiment [1], 50 µM in experiment [2] and over 50 µM in experiment [3]. Further, the Ki on human TS ("HTS") amounted to 0.87 ± 0.19 µM; at Candida TS ("CTS"), 11 ± 7 µM; in experiment [4], 14 ± 7 µM.

As for `CCCN(Cc1ccc(S(=O)(=O)N2CCNCC2)cc1)c1ccc2c3c(cccc13)C(=O)N2` [Compound 19, N-[4-(N,N-Piperazinylsulfamoyl)benzyl]-N-propyl-6-aminobenz[cd]indol-2(1H)-one], the IC50 in experiment [1] worked out at 3.1 µM; in experiment [2] it was 2.9 µM; in experiment [3], 5.4 µM. Besides, the results for the Ki (on human TS ("HTS"); at Candida TS ("CTS"); in experiment [4]) were 12 ± 4 µM, over 10 µM and over 20 µM, respectively.

On to `CC(C)N(Cc1ccc(S(=O)(=O)N2CCNCC2)cc1)c1ccc2c3c(cccc13)C(=O)N2` [Compound 22, N-[4-(N,N-piperazinylsulfamoyl)benzyl]-N-isopropyl-6-aminobenz[cd]indol-2(1H)-one], for which the figures for the half-maximal inhibitory concentration (IC50) in experiment [1], in experiment [2] and in experiment [3] were 6.8 µM, 3.9 µM and 5.9 µM, respectively. For the same compound, the Ki came out at 4.9 ± 0.7 µM on human TS ("HTS"), 43 ± 9 µM at Candida TS ("CTS") and 23 ± 7 µM in experiment [4].

In the case of `CSCN(Cc1ccc(S(=O)(=O)c2ccccc2)cc1)c1ccc2c3c(cccc13)C(=O)N2` [Compound 24, N-[4-(Phenylsulfonyl)benzyl]-N-methylthiomethyl-6-aminobenz[cd]indol-2(1H)-one], the figures for the IC50 in experiment [1], in experiment [2] and in experiment [3] were 2.8 µM, 2.1 µM and over 10 µM, respectively. Moreover, the inhibition constant Ki on human TS ("HTS") is 3.9 ± 1.7 µM; on Candida TS ("CTS"), over 1 µM; in experiment [4], over 1 µM.

With `CN(Cc1ccc(S(=O)(=O)c2ccccc2)cc1)c1ccc2c3c(cccc13)C(=O)N2` [Compound 29], the half-maximal inhibitory concentration (IC50) in experiment [3] was over 5 µM.

With `CN(Cc1ccc(CO)c2ccccc12)c1ccc2c3c(cccc13)C(=O)N2` [Compound 31, N-[4-Hydroxymethyl-1-naphthobenzyl]-N-methyl-6-aminobenz[cd]indol-2(1H)-one], the IC50 in experiment [1] came to 3 µM; in experiment [2], 0.8 µM; in experiment [3], 4 µM. The Ki was 10 ± 1 µM on human TS ("HTS"); over 2 µM on Candida TS ("CTS") (read-out: Ki CTS, 25° C., against 5,10-methylene-tetrahydrofolate, 25 microM dUMP); over 2 µM in experiment [4] (read-out: Ki ETS, 25° C., against 5,10-methylene-tetrahydrofolate, 25 microM dUMP).

On to `CCN(Cc1ccc(S(=O)(=O)c2ccccc2)cc1)c1ccc2c3c(cccc13)C(N)=N2` [Compound 34], for which the IC50 in experiment [1] came to 1.25 µM; in experiment [2], 0.7 µM; in experiment [3] it was 3 µM. Besides, the Ki at human TS ("HTS") worked out at 0.075 ± 0.037 µM; on Candida TS ("CTS"), 0.38 ± 0.11 µM; in experiment [4], 10 ± 6 µM.

As for `O=C1Nc2ccc(N(CCCO)Cc3ccc(S(=O)(=O)N4CCNCC4)cc3)c3cccc1c23` [Compound 40, N-[4-(N,N-Piperazinylsulfamoyl)benzyl]-N-hydroxypropyl-6-aminobenz[cd]indol-2-(1H)-one], the IC50 was 15 µM in experiment [1], 21.5 µM in experiment [2] and 30 µM in experiment [3]. Further, the values for the Ki (at human TS ("HTS"); at Candida TS ("CTS"); in experiment [4]) were 11 ± 5 µM, over 10 µM and over 10 µM, respectively.

As for `CCN(Cc1ccc(S(=O)(=O)c2ccccc2)cc1)c1ccc2c3c(cccc13)CN2` [Compound 41, N-[4-(phenylsulfonyl)benzyl]-N-ethyl-6-amino-dihydrobenz[cd]indole], the Ki was 12 ± 3 µM on human TS ("HTS"), over 10 µM at Candida TS ("CTS") and over 5 µM in experiment [4].

Consider `CN(Cc1ccc2cc(CO)ccc2c1)c1ccc2c3c(cccc13)C(=O)N2` [Compound 47, N-(6-Hydroxymethyl-2-naphthobenzyl)-N-methyl-6-aminobenz[cd]indol-2(1H)-one], for which the half-inhibitory concentration (IC50) is over 4 µM in experiment [1], 1.7 µM in experiment [2] and over 4 µM in experiment [3]. Besides, the Ki is 20 ± 10 µM on human TS ("HTS"), over 10 µM at Candida TS ("CTS") and over 10 µM in experiment [4].

The values are drawn from patent US5574039A, “Antiproliferative compounds having nitrogen-containing tricyclic ring systems and phenyl substituents” (Agouron Pharmaceuticals, Inc., priority 1994, dated 1996).
